Source: article PMC10762035, “Molecular basis of human trace amine-associated receptor 1 activation” (Nature Communications, 2024)
Residue numbers refer to the chain shown, from its start. Values joined by “and” are separate entries in the source; they are usually repeats but may differ in a detail not shown here. Identical values can stand only once.

Tests used:
hTA1 I290Y = molecular target: T1, hTA1 I290Y (Homo sapiens, UniProt Q96RJ0, I290Y); test: GloSensor cAMP accumulation assay, I290Y mutant; type: cell-based; conditions: for cAMP accumulation response, normalized (concentration-response source data, single replicate values): hTA1 I290Y (N=3), log[Compound];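 as to cAMP accumulation response, normalized (concentration-response source data, single replicate values): normalized to the maximum response of β-PEA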
T1 construct: expressed in transfected cells; host or cells: HEK293T
T1 sequence (Q96RJ0 1-339 I290Y): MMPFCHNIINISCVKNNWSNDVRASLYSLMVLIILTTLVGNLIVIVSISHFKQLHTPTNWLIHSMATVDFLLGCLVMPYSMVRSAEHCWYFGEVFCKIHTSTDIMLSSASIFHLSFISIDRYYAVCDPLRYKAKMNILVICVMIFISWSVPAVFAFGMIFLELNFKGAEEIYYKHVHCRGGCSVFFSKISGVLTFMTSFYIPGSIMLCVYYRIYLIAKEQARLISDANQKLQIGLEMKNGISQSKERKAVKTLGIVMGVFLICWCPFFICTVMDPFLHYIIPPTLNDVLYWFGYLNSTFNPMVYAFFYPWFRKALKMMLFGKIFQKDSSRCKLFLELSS

hTA1 T194A = molecular target: T2, hTA1 T194A (Homo sapiens, UniProt Q96RJ0, T194A); test: GloSensor cAMP accumulation assay, T194A mutant; conditions: for cAMP accumulation response, individual replicate values of the concentration-response curve: hTA1 T194A, log[Agonist], Supplementary Figure 5 source data
T2 sequence (Q96RJ0 1-339 T194A): T1 sequence (Q96RJ0 1-339 I290Y) with T194A, Y290I

hTA1 R83H = molecular target: T3, hTA1 R83H (Homo sapiens, UniProt Q96RJ0, R83H); test: GloSensor cAMP accumulation assay, R83H mutant; type: cell-based;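 also: cells transiently co-expressing hTA1 and a cAMP GloSensor, luminescence read 30 min after agonist addition at room temperature, concentration–response fitted by non-linear regression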
T3 construct: expressed in transfected cells; host or cells: HEK293T
T3 sequence (Q96RJ0 1-339 R83H): T1 sequence (Q96RJ0 1-339 I290Y) with R83H, Y290I

What does the source list for `NCCc1ccccc1` [β-PEA, β-phenethylamine]?
pEC50 ± SEM (hTA1 I290Y; I290Y): 6.43 ± 0.07; ΔEmax values (each mutant value - WT average) (hTA1 I290Y; I290Y minus WT average): 0; ΔpEC50 values (each mutant value - WT average), Mean (hTA1 I290Y; I290Y minus WT average): -0.6326 and -0.5624 and -0.7969; EC50 (hTA1 I290Y; I290Y, read-out: EC50): 372 nM; pEC50 values, Mean (hTA1 I290Y; I290Y, single experiments (3 replicates each)): 6.461 and 6.531 and 6.297; Emax values, Mean (hTA1 I290Y; I290Y, single experiments (3 replicates each), β-PEA = 100): 100; cAMP accumulation response, normalized (concentration-response source data, single replicate values) (hTA1 I290Y; M = -5): 106.77 and 91.3809 and 125.546 and 108.456 and 111.021 and 107.357 and 101.946 and 94.0497 and 113.225; cAMP accumulation response, normalized (concentration-response source data, single replicate values) (hTA1 I290Y; M = -5.522): 77.8381 and 72.2978 and 82.1471 and 73.6443 and 85.0039 and 85.3703 and 81.642 and 86.1539 and 57.9545; cAMP accumulation response, normalized (concentration-response source data, single replicate values) (hTA1 I290Y; M = -6): 87.3796 and 52.2914 and 77.8381 and 75.4765 and 68.8807 and 65.9492 and 71.4902 and 68.1063 and 59.0825; cAMP accumulation response, normalized (concentration-response source data, single replicate values) (hTA1 I290Y; M = -6.522): 54.4459 and 35.6706 and 50.4446 and 60.0862 and 56.7882 and 48.7266 and 47.8027 and 37.651 (2×); cAMP accumulation response, normalized (concentration-response source data, single replicate values) (hTA1 I290Y; M = -7): 31.0537 and 19.6655 and 31.3615 and 25.6411 and 22.3431 and 26.3739 and 25.2433 and 15.0915 and 12.8355; cAMP accumulation response, normalized (concentration-response source data, single replicate values) (hTA1 I290Y; M = -7.522): 12.5863 and 7.662 and 9.508 and 11.7164 and 13.1822 and 20.5109 and 7.196 and 4.9397 and 3.812; cAMP accumulation response, normalized (concentration-response source data, single replicate values) (hTA1 I290Y; M = -8): 5.199 (2×) and 2.121 and 24.1753 and 3.655 and 1.823 and 1.556 and -1.828 and -0.7002; cAMP accumulation response, normalized (concentration-response source data, single replicate values) (hTA1 I290Y; M = -8.522): 0.8902 and -1.264 and -0.0332 and -1.109 and -1.842 and -4.04 and 0.4278 and -2.956 and -0.7002; cAMP accumulation response, normalized (concentration-response source data, single replicate values) (hTA1 I290Y; M = -9): -0.341 (2×) and -2.496 and 2.189 and -2.575 and -4.773 and 0.4278 and -1.828 and -2.956; cAMP accumulation response, normalized (concentration-response source data, single replicate values) (hTA1 I290Y; M = -9.522): -0.9566 and -2.803 and -1.264 and -1.109 and -0.7424 and -1.475 and 0.4278 and -4.0841 and -0.7002; cAMP accumulation response, normalized (concentration-response source data, single replicate values) (hTA1 I290Y; M = -10): -0.0332 (2×) and -1.88 and -5.873 and -4.407 and -4.773 and 2.684 and -1.828 and -0.7002; cAMP accumulation response, normalized (concentration-response source data, single replicate values) (hTA1 I290Y; M = -10.522): -0.6488; pEC50 values, Mean (hTA1 T194A; T149A (so in the source), single experiments (3 replicates each)): 7.395 and 7.196 and 7.094; Emax values, Mean (hTA1 T194A; T149A (so in the source), single experiments (3 replicates each), β-PEA = 100): 100; EC50 (hTA1 T194A; T194A): 63.6 nM; Span ± SEM (Emax normalized to β-PEA) (hTA1 T194A; T194A): 100 ± 2.46; pEC50 ± SEM (hTA1 T194A; T194A): 7.23 ± 0.13; cAMP accumulation response, individual replicate values of the concentration-response curve (hTA1 T194A; M = -7.522): 32.1474 and 24.1931 and 33.6304 and 28.9237 and 30.7017 and 33.27 and 42.7604 and 43.2488 and 44.1811; cAMP accumulation response, individual replicate values of the concentration-response curve (hTA1 T194A; M = -8): 31.2036 and 13.6773 and 15.1603 and 14.8971 and 13.5142 and 22.7372 and 24.6907 and 22.9592; cAMP accumulation response, individual replicate values of the concentration-response curve (hTA1 T194A; M = -8.522): 3.836 and 0.5999 and 3.97 and 8.1802 and 2.846 (2×) and 8.885 and 8.264 and 10.2172; cAMP accumulation response, individual replicate values of the concentration-response curve (hTA1 T194A; M = -9): 2.487 and 2.892 and 1.813 and 0.4755 and 2.056 and 3.424 and 1.293 (2×); cAMP accumulation response, individual replicate values of the concentration-response curve (hTA1 T194A; M = -9.522): 1.678 and 0.1954 and 0.8695 and 0.08035 (2×) and -0.5123 and 0.3166 and -0.7046 and 0.139; cAMP accumulation response, individual replicate values of the concentration-response curve (hTA1 T194A; M = -10): -0.6135 and -0.209 and 0.1954 and -0.5123 and -0.3148 and -0.08302 and -0.1718 and -0.749; cAMP accumulation response, individual replicate values of the concentration-response curve (hTA1 T194A; M = -10.522): -0.4787 and -1.692 and -1.557 and -1.303 (2×) and -1.5 and -0.7934 and -0.6602 and -0.6158; cAMP accumulation response, individual replicate values of the concentration-response curve (hTA1 T194A; M = -11): -1.4224 (2×) and -0.7483 and -0.9074 and -0.7099 and -0.4382 and -0.8378 and 0.05017; cAMP accumulation response, individual replicate values of the concentration-response curve (hTA1 T194A; M = -11.522): 0.4651 and -1.018 and -1.153 and -0.5123 and -0.7099 (2×) and -0.4382 and -1.015 and -0.6602; cAMP accumulation response, individual replicate values of the concentration-response curve (hTA1 T194A; M = -12): -0.07421 (2×) and -1.962 and -1.698 and -1.105 and -0.1274 and -0.6602 and -0.1718; cAMP accumulation response, individual replicate values of the concentration-response curve (hTA1 T194A; M = -12.522): 0.0606 and 1.004 and 0.8695 and -0.9074 and -0.7099 and -0.3148 and -0.1718 and -0.305 and 0.1834; ΔEmax values (each mutant value - WT average) (hTA1 T194A; minus WT average): 0; ΔEmax values (each mutant value - WT average) (hTA1 R83H; R83H mutant minus WT average): 0; ΔpEC50 values (each mutant value - WT average) (hTA1 R83H; R83H mutant minus WT average): -1.391 and -1.424; pEC50 values, Mean (hTA1 R83H; R83H mutant, each line an independent experiment, 3 replicates): 5.702 and 5.67; Emax values, Mean (hTA1 R83H; R83H mutant, β-PEA = 100, each line an independent experiment, 3 replicates): 100; Span ± SEM (Emax normalized to β-PEA) (hTA1 R83H; R83H, n=2): 100 ± 5.46; pEC50 ± SEM (hTA1 R83H; R83H, n=2): 5.69 ± 0.07; EC50 (hTA1 R83H; R83H, n=2, read-out: EC50): 2060 nM
